# Source: patent US20130217644A1, “Pharmaceutical Compositions of 2'-C-Methyl-Guanosine, 5'-[2[(3-Hydroxy-2,2-Dimethyl-1-Oxopropyl)Thio]Ethyl N-(Phenylmethyl)Phosphoramidate]” (IDENIX PHARMACEUTICALS, INC., priority 2012, published 2013)
# Key:
# [1] = Open-label randomized cross-over single-dose pharmacokinetic study, tablet vs liquid filled capsule; type: in vivo, human; conditions: 50 mg single doses (tablet and capsule), healthy male subjects
# Procedure: A lot of tablets manufactured under cGMP conditions utilizing the composition of Example 3 (with appropriate adjustment of the weight % of PROSOLV SMCC 90 to account for the potency of Compound 1) were utilized in a pharmacokinetic study. The human clinical study was study performed in conformance with the Declaration of Helsinki and approved by a local Ethics Committee. An open-label randomized cross-over single-dose pharmacokinetic effect study was conducted in 12 healthy male subjects (ages 19-65) to compare the relative exposure of the tablet composition (50 mg compound 1) as compared to the liquid filled capsule composition (50 mg of compound 1) in the fasted state. In addition, an un-randomized third period followed the first two periods in which all 12 subjects were dosed with the tablet composition (50 mg compound 1) in the fed state, and 8 of the 12 subjects returned for a fourth period in which the 8 subjects were dosed with the liquid filled capsule composition (50 mg compound 1) in the fed state. Plasma samples for pharmacokinetic (PK) analysis were taken over a period of 120 h after dosing during each treatment period. Dosing days were at least 6 days apart (Period 1, days 1 to 6; Period 2, days 7 to 13, Period 3, days 14 to 20; and Period 4 followed the initial three periods). […] The pharmacokinetic samples were assayed for 2′-C-methyl-guanosine as well as compound 1.
# [2] = Excipient compatibility: ethylene sulfide in 1:1 blends of compound 1 and excipient; type: physicochemical; conditions: 1:1 weight ratio of compound 1 and excipient, glass vials, gentle rotation 30 minutes, ambient conditions
# Procedure: Excipient compatibility of compound 1 with various excipients was determined. Samples of a 1:1 weight ratio of compound 1 and each excipient were blended in glass vials. The vials were subjected to gentle rotation to 30 minutes at ambient conditions. Samples were assayed for ethylene sulfide. Table 3 below presented the results for a selected group of the excipients evaluated: […]
# HCV replication = conditions: in-vitro assays, as described in U.S. Pat. No. 7,951,789; cited from earlier work
structure (smiles),measurement,setting,value
"CC(C)(CO)C(=O)SCCOP(=O)(NCc1ccccc1)OC[C@H]1O[C@@H](n2cnc3c(=O)[nH]c(N)nc32)C(C)(O)C1O (stereo partly drawn) [Compound 1, 2′-C-methyl-guanosine, 5′-[2-[(3-hydroxy-2,2-dimethyl-1-oxopropyl)thio]ethyl N-(phenylmethyl)phosphoramidate]]",serious adverse events,[1],No serious adverse events were reported
same,ppm Ethylene Sulfide Mean of 4 samples,[2],<9 ppm
same,inhibition of HCV replication (in words),HCV replication,ability to inhibit HCV replication
